Article PMC6300691, “Enhancement of Heat Stability and Kinetic Parameters of the Maize Endosperm ADP-Glucose Pyrophosphorylase by Mutagenesis of Amino Acids in the Small Subunit With High B Factors” (Frontiers in Plant Science, 2018)

Assays:
Format in all cases: biochemical
[1] = tested on: T1, MP + SH2-E; assay: Initial-rate assay without 3-PGA, ATP and G-1-P both varied (0.01-10 mM and 0.1-25 mM), global fit to a sequential mechanism.; conditions: read-out: ATP Km (absence of 3-PGA)
T1 construct: chimeric small subunit MP (maize 198 / potato 277 amino acids) with SH2-E
Text: Activity in the absence of the activator 3PGA was examined. While 3PGA is a noted activator for plant AGPase, the mechanism of activation differs for the various AGPases. […] Thus, the term “activation fold” in the literature is merely an activity reported at single fixed substrate concentrations.
The small subunit mutant, MP, contains the first 198 amino acids of the small subunit of the maize endosperm enzyme and the last 277 amino acids from the potato tuber enzyme resulting in thirty-three amino acid sites that differ from the maize endosperm enzyme ([Cross et al., 2004]).

[2] = molecular target: T2, R331K (Zea mays, UniProt P55241+Q947C0, R331K); assay: Initial-rate assay (PPi formation coupled to NADH oxidation) with varied ATP (0.05-3.0 mM) at 2.0 mM G-1-P, 2.5 mM 3-PGA, 15 mM MgCl2, 50 mM HEPES pH 7.4, hyperbolic fit.; conditions: read-out: KM ATP
T2 construct: BT2 variant with wild type SH2, E. coli, purified
T2 sequence (Q947C0 1-475 R331K, one chain of several): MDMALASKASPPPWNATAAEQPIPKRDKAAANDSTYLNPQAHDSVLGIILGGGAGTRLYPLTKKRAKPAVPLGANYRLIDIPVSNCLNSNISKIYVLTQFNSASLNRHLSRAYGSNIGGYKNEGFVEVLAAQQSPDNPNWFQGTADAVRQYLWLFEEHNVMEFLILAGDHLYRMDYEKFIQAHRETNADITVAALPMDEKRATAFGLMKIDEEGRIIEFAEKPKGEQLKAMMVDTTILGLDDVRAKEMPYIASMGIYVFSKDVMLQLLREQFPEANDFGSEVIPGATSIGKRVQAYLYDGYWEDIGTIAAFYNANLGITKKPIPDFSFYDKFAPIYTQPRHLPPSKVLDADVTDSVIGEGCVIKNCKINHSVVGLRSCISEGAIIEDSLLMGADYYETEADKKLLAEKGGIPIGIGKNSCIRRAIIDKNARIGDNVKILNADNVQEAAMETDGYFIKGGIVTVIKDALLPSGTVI
Text: (§1) All saturation plots were hyperbolic. No cooperative effects were seen.

[3] = molecular target: T3, L404K (Zea mays, UniProt P55241+Q947C0, L404K); assay: as above; conditions: read-out: KM ATP
T3 construct: BT2 variant with wild type SH2, E. coli, purified
T3 sequence (Q947C0 1-475 L404K, one chain of several): as the sequence (Q947C0 1-475 R331K, one chain of several) above, with K331R, L404K counted along it
Text: as §1

[4] = molecular target: T4, L404E (Zea mays, UniProt P55241+Q947C0, L404E); assay: as above; conditions: read-out: KM ATP
T4 construct: BT2 variant with wild type SH2, E. coli, purified
T4 sequence (Q947C0 1-475 L404E, one chain of several): as the sequence (Q947C0 1-475 R331K, one chain of several) above, with K331R, L404E counted along it
Text: as §1

[5] = molecular target: T5, E123Q (Zea mays, UniProt P55241+Q947C0, E123Q); assay: as above; conditions: read-out: KM ATP
T5 construct: BT2 variant with wild type SH2, E. coli, purified
T5 sequence (Q947C0 1-475 E123Q, one chain of several): as the sequence (Q947C0 1-475 R331K, one chain of several) above, with E123Q, K331R counted along it
Text: as §1

[6] = molecular target: T6, E123G, R331K, L404H (Zea mays, UniProt P55241+Q947C0, E123G/R331K/L404H); assay: as above; conditions: read-out: KM ATP
T6 construct: BT2 variant with wild type SH2, E. coli, purified
T6 sequence (Q947C0 1-475 E123G/R331K/L404H, one chain of several): as the sequence (Q947C0 1-475 R331K, one chain of several) above, with E123G, L404H counted along it
Text: as §1

[7] = molecular target: T7, K402R (Zea mays, UniProt P55241+Q947C0, K402R); assay: as above; conditions: read-out: KM ATP
T7 construct: BT2 variant with wild type SH2, E. coli, purified
T7 sequence (Q947C0 1-475 K402R, one chain of several): as the sequence (Q947C0 1-475 R331K, one chain of several) above, with K331R, K402R counted along it
Text: as §1

[8] = molecular target: T8, K403L (Zea mays, UniProt P55241+Q947C0, K403L); assay: as above; conditions: read-out: KM ATP
T8 construct: BT2 variant with wild type SH2, E. coli, purified
T8 sequence (Q947C0 1-475 K403L, one chain of several): as the sequence (Q947C0 1-475 R331K, one chain of several) above, with K331R, K403L counted along it
Text: as §1

[9] = molecular target: T9, E123G, R331K, K402R, L404H (Zea mays, UniProt P55241+Q947C0, E123G/R331K/K402R/L404H); assay: as above; conditions: read-out: KM ATP
T9 construct: BT2 quadruple variant with wild type SH2, E. coli, purified
T9 sequence (Q947C0 1-475 E123G/R331K/K402R/L404H, one chain of several): as the sequence (Q947C0 1-475 R331K, one chain of several) above, with E123G, K402R, L404H counted along it
Text: as §1

[10] = molecular target: T10, E123G, R331K, K402R (BT2-BF) (Zea mays, UniProt P55241+Q947C0, E123G/R331K/K402R); assay: as above; conditions: read-out: KM ATP
T10 construct: BT2-BF with wild type SH2 (SH2-WT/BT2-BF), E. coli, purified
T10 sequence (Q947C0 1-475 E123G/R331K/K402R): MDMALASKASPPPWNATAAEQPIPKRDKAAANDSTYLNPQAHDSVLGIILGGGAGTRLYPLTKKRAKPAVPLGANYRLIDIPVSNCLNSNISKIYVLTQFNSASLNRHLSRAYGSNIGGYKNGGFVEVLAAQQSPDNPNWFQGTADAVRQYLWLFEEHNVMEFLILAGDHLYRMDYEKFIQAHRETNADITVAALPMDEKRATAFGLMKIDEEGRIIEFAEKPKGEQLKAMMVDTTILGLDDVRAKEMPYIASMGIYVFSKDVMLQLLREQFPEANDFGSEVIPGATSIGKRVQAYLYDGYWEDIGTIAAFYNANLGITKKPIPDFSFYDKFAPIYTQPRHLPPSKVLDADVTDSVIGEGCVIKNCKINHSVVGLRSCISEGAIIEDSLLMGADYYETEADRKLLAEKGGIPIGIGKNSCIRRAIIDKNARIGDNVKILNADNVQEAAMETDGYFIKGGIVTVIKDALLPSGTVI
T10 sequence (P55241 46-516): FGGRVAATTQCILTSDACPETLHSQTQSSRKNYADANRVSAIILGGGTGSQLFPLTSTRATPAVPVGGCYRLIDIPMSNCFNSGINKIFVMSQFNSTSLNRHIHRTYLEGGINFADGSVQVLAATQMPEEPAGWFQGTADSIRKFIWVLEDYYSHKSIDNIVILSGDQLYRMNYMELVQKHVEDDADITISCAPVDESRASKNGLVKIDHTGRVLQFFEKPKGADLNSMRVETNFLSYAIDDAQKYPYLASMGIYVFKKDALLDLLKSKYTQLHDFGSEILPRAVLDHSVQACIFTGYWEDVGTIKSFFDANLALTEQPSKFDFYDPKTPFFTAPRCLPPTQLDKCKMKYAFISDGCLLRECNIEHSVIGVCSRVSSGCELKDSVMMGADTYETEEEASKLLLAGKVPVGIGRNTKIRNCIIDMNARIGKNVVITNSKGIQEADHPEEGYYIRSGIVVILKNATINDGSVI
Text: as §1

[11] = molecular target: T11, K403E (Zea mays, UniProt P55241+Q947C0, K403E); assay: as above; conditions: read-out: KM ATP
T11 construct: BT2 variant with wild type SH2, E. coli, purified
T11 sequence (Q947C0 1-475 K403E, one chain of several): as the sequence (Q947C0 1-475 R331K, one chain of several) above, with K331R, K403E counted along it
Text: as §1

[12] = molecular target: T12, D242H (Zea mays, UniProt P55241+Q947C0, D242H); assay: as above; conditions: read-out: KM ATP
T12 construct: BT2 variant with wild type SH2, E. coli, purified
T12 sequence (Q947C0 1-475 D242H, one chain of several): as the sequence (Q947C0 1-475 R331K, one chain of several) above, with D242H, K331R counted along it
Text: as §1

[13] = molecular target: T13, R331P (Zea mays, UniProt P55241+Q947C0, R331P); assay: as above; conditions: read-out: KM ATP
T13 construct: BT2 variant with wild type SH2, E. coli, purified
T13 sequence (Q947C0 1-475 R331P, one chain of several): as the sequence (Q947C0 1-475 R331K, one chain of several) above, with K331P counted along it
Text: as §1

[14] = molecular target: T14, L404H (Zea mays, UniProt P55241+Q947C0, L404H); assay: as above; conditions: read-out: KM ATP
T14 construct: BT2 variant with wild type SH2, E. coli, purified
T14 sequence (Q947C0 1-475 L404H, one chain of several): as the sequence (Q947C0 1-475 R331K, one chain of several) above, with K331R, L404H counted along it
Text: as §1

Question: `Nc1ncnc2c1ncn2[C@@H]1O[C@H](COP(=O)(O)OP(=O)(O)OP(=O)(O)O)[C@@H](O)[C@H]1O` [ATP, adenosine 5'-triphosphate] was tested. Which Km [1] did it give?
Answer: Its Km is 320 ± 21 µM.

Question: What about the Km [2] of the same molecule?
Answer: The Km was 88 ± 13 µM.

Question: And the Km [3]?
Answer: The Km was 43 ± 9 µM.

Question: What about the Km [4] of the same molecule?
Answer: Its Km is 135 ± 47 µM.

Question: And the Km [5]?
Answer: The Km was 52 ± 6 µM.

Question: What about the Km [6] of the same molecule?
Answer: The Km was 67 ± 10 µM.

Question: And the Km [7]?
Answer: Its Km is 79 ± 15 µM.

Question: And the Km [8]?
Answer: The Km was 82 ± 17 µM.

Question: And the Km [9]?
Answer: The Km was 91 ± 8 µM.

Question: And the Km [10]?
Answer: Its Km is 60 ± 7 µM.

Question: And the Km [11]?
Answer: Its Km is 69 ± 12 µM.

Question: What about the Km [12] of the same molecule?
Answer: Its Km is 110 ± 16 µM.

Question: What about the Km [13] of the same molecule?
Answer: Its Km is 97 ± 15 µM.

Question: What about the Km [14] of the same molecule?
Answer: The Km was 132 ± 22 µM.
